Source: patent publication US20200123396A1, “PRODUCTS PRESERVED WITH 5-CHLORO-2-METHYL-4-ISOTHIAZOLIN-3-ONE” (THOR GMBH, priority 2014, published 2020)

Tests used:
[1] = destruction of 2-methylisothiazolin-3-one in an aqueous emulsion paint using sodium thiosulfate; type: physicochemical
Source text: A drawback, however, is that according to the method described, the isothiazolinones, and especially the MIT, are not destroyed quantitatively or irreversibly, and so are still always present in the products and derivatives, and may still as before cause problems to persons reacting allergically, and/or may give rise to contact eczemas or aerogenic contact eczemas in persons having a high degree of sensitization.

[2] = system: microorganisms introduced via the individual components of the paint; experiment: microbiological investigations of the preserved emulsion paint; type: cell-based; details: 20 ppm of 5-chloro-2-methylisothiazolin-3-one (2-methylisothiazolin-3-one content <1 wt %) in water-based emulsion paint; growth detectable in individual components
Source text: Added to a preservative-free styrene-acrylate dispersion were 20 ppm of 5-chloro-2-methylisothiazolin-3-one, having a 2-methylisothiazolin-3-one content of <1 wt %. The styrene-acrylate dispersion thus preserved was then used for producing a water-based emulsion paint. The composition of the paint produced was as follows: • 25.7 wt % water • 0.2 wt % acrylate-based wetting and dispersing agent • 0.2 wt % mineral oil-based defoamer • 2.0 wt % water softener (sodium polyphosphate) • 0.2 wt % ammonia • 4.0 wt % titanium oxide (pigment) • 51.0 wt % calcium carbonate (filler) • 5.0 wt % talc (filler) • 0.4 wt %% cellulose ether • 2.0 wt % organic solvent for lowering the minimum film-forming temperature • 9.0 wt % the styrene-acrylate dispersion preserved with 20 ppm of 5-chloro-2-methylisothiazolin-3-one • 20 ppm 5-chloro-2-methylisothiazolin-3-one, having a 2-methylisothiazolin-3-one content of <1 wt %

[3] = decomposition of 5-chloro-2-methylisothiazolin-3-one in the emulsion paint by cysteine, HPLC; type: physicochemical; details: after 3 hours, addition of 50 ppm of cysteine based on the emulsion paint
Source text: In order, from the emulsion paint, which contained significant quantities of 5-chloro-2-methylisothiazolin-3-one, to produce a paint unobjectionable for allergics in relation to 5-chloro-2-methylisothiazolin-3-one and 2-methylisothiazolin-3-one present therein, to produce, these isothiazolin-3-ones were decomposed by addition of 50 ppm of cysteine, based on the emulsion paint.

SMILES	destruction of 2-methylisothiazolin-3-one [1]	microbial growth in the emulsion paint [2]	detectability of 5-chloro-2-methylisothiazolin-3-one in the emulsion paint by HPLC [3]
Cn1sccc1=O [2-methylisothiazolin-3-one]	destroyed neither quantitatively nor irreversibly		
Cn1sc(Cl)cc1=O [5-chloro-2-methylisothiazolin-3-one]		no microbial growth	no longer detectable
